In PubChem BioAssay (NCI):
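Values below derive from 48-hour exposures of cells grown in 96-well plates, with endpoints linearly interpolated between the two concentrations bracketing the appropriate inhibition level. Here, GI50 denotes the concentration required for 50% inhibition of growth. TGI denotes the concentration required for complete inhibition of growth.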

Assays:
Assay in all cases: inhibition of tumour cell growth, NCI panel, 48 h
HCT-116 colon = test system: HCT-116 colon
CAKI-1 renal = test system: CAKI-1 renal
U251 CNS = test system: U251 CNS
KM12 colon = test system: KM12 colon
TK-10 renal = test system: TK-10 renal
HT29 colon = test system: HT29 colon
SW-620 colon = test system: SW-620 colon
CCRF-CEM leukemia = test system: CCRF-CEM leukemia
IGROV1 ovarian = test system: IGROV1 ovarian
NCI-H23 lung = test system: NCI-H23 lung

Row | SMILES | GI50 (HCT-116 colon) [µM] | TGI (HCT-116 colon) [µM] | GI50 (CAKI-1 renal) [µM] | TGI (CAKI-1 renal) [µM] | GI50 (U251 CNS) [µM] | TGI (U251 CNS) [µM] | GI50 (KM12 colon) [µM] | TGI (KM12 colon) [µM] | GI50 (TK-10 renal) [µM] | TGI (TK-10 renal) [µM] | GI50 (HT29 colon) [µM] | TGI (HT29 colon) [µM] | GI50 (SW-620 colon) [µM] | TGI (SW-620 colon) [µM] | GI50 (CCRF-CEM leukemia) [µM] | TGI (CCRF-CEM leukemia) [µM] | GI50 (IGROV1 ovarian) [µM] | TGI (IGROV1 ovarian) [µM] | TGI (NCI-H23 lung) [µM] | GI50 (NCI-H23 lung) [µM]
1 | CC(=O)[CH-]C(=O)c1ccccc1.CC(=O)[CH-]C(=O)c1ccccc1.[O-]c1ccc(O)cc1.[O-]c1ccc(O)cc1.[Ti+4] | 15.1 | 28.3 | 17 | 34.1 | 11.1 | 24 | 15.3 | 33 | 27.7 | 59.2 | 21.5 | 59.7 | 17 | 31.6 | 1.91 | 7.49 | 23.7 | 63 | – | –
2 | c1ccc2c(c1)[Se]c1ccccc1[Se]2 | – | 72.4 | – | > 100 | – | > 100 | – | > 100 | – | > 100 | – | > 100 | – | > 100 | – | > 100 | – | > 100 | > 100 | –
3 | COc1ccc(/C=C2/CCOC2=O)cc1 | > 100 | > 100 | – | – | > 100 | > 100 | > 100 | > 100 | > 100 | > 100 | > 100 | > 100 | > 100 | > 100 | > 100 | > 100 | > 100 | > 100 | > 100 | > 100
4 | CC(=O)OC1C(O)COC(Oc2c(C)c3c4c(c2O)[C@@H](C)CC[C@@H]4[C@@H](C)C[C@H]3C=C(C)C)C1O (some centres undefined) | 21.1 | > 100 | 16.9 | 32.2 | 18 | 35 | 14.8 | 30.8 | 14.7 | 29 | – | – | – | – | 7.42 | 27.4 | 28.9 | > 100 | 37.5 | 17.9
5 | CCC(=O)[O-].CCC(=O)[O-].N.N.N.N.[Co+3].[O-][Cl+3]([O-])([O-])[O-] | > 100 | > 100 | – | – | > 100 | > 100 | > 100 | > 100 | > 100 | > 100 | > 100 | > 100 | > 100 | > 100 | > 100 | > 100 | > 100 | > 100 | > 100 | > 100
6 | NC(N)=NS(=O)(=O)c1ccc(NC(=O)c2ccc(Cl)c3c(Nc4ccc(S(=O)(=O)N=C(N)N)cc4)c4ccccc4nc23)cc1 | – | – | – | > 100 | – | > 100 | – | > 100 | – | – | – | > 100 | – | > 100 | – | > 100 | – | > 100 | > 100 | –
7 | CC(=O)N1C(=O)C(=O)c2cc(Cl)ccc21 | – | – | – | – | – | > 100 | – | > 100 | – | > 100 | – | > 100 | – | > 100 | – | – | – | > 100 | > 100 | –
8 | COC(=O)c1c(C(=O)OC)c(C(=O)OC)c(C(=O)OC)c1C(=O)OC | – | – | – | > 100 | – | > 100 | – | > 100 | – | > 100 | – | > 100 | – | > 100 | – | > 100 | – | > 100 | > 100 | –
